# Results reported in patent publication US6127519A, “Calcitonin derivatives” (Tsumura & Co., priority 1990, dated 2000).
# Several values for one entry are separate records, joined by “and”; a condition that tells them apart may be missing. Equal values may be shown once. Bridge positions count the residues as written; N and C are the ends. Ends that are not written are not given here. Peptide text beside a SMILES is read from it.
# Test system: calcium concentration in the serum
# Test: Test 1: reduction of calcium level in serum after tail vein administration to rats
# Format: in vivo, rats of the Wistar strain
# Details: 1 ml/kg tail vein, female Wistar rats
# Protocol: Six-weeks-old female rats of the Wistar strain (each group consisting of 4 rats) were used as the test animal, and the peptides of the present invention obtained in the examples given hereinafter were tested at concentrations adjusted with a 1% aqueous solution of sodium acetate (pH 4,0) to which 0.1% bovine serum albumin (BSA) was added. The solution was adjusted to a concentration of 166 μg/ml 830 ng/ml or 83 ng/ml and administered with the tail vein in an amount of 1 ml/kg. The back of the rat was fixed and blood was collected just before the administration, and at predetermined intervals after the administration, from the neck vein. The amount of blood collected each time was 0.3 ml. The sampled blood was subjected to centrifugal separation at 3500 rpm for 20 minutes to separate serum and the calcium content in the separated serum was measured by TBA-380 (supplied by Toshiba) using a Wako calcium-measuring kit (o-cpc method), and the ratio of reduction of the calcium concentration in the serum was determined.
# [1] = concentration 83 ng/ml, 0 hour (just before administration)
# [2] = concentration 83 ng/ml, 2 hours
# [3] = concentration 83 ng/ml, 4 hours
# [4] = concentration 83 ng/ml, 6 hours
# [5] = concentration 830 ng/ml, 0 hour (just before administration)
# [6] = concentration 830 ng/ml, 1 hour
# [7] = concentration 830 ng/ml, 2 hours
# [8] = concentration 830 ng/ml, 4 hours
# [9] = concentration 830 ng/ml, 6 hours
Compound,Serum calcium level as percent of pre-dose baseline [1] [%],"Serum calcium level as percent of pre-dose baseline (concentration 83 ng/ml, 1 hour) [%]",Serum calcium level as percent of pre-dose baseline [2] [%],Serum calcium level as percent of pre-dose baseline [3] [%],Serum calcium level as percent of pre-dose baseline [4] [%],Serum calcium level as percent of pre-dose baseline [5] [%],Serum calcium level as percent of pre-dose baseline [6],Serum calcium level as percent of pre-dose baseline [7],Serum calcium level as percent of pre-dose baseline [8],Serum calcium level as percent of pre-dose baseline [9],"Serum calcium level as percent of pre-dose baseline (concentration 166 ng/ml, 0 hour (just before administration)) [%]","Serum calcium level as percent of pre-dose baseline (concentration 166 ng/ml, 1 hour) [%]","Serum calcium level as percent of pre-dose baseline (concentration 166 ng/ml, 2 hours) [%]","Serum calcium level as percent of pre-dose baseline (concentration 166 ng/ml, 4 hours) [%]","Serum calcium level as percent of pre-dose baseline (concentration 166 ng/ml, 6 hours) [%]"
CC[C@H](C)[C@H](NC(=O)[C@H](C)NC(=O)[C@@H](NC(=O)[C@H](CCC(N)=O)NC(=O)[C@@H]1CCCN1C(=O)[C@H](Cc1ccc(O)cc1)NC(=O)[C@@H](NC(=O)[C@H](CCC(N)=O)NC(=O)[C@H](CC(C)C)NC(=O)[C@H](CCCCN)NC(=O)[C@H](Cc1c[nH]cn1)NC(=O)[C@H](CC(C)C)NC(=O)[C@H](CCC(=O)O)NC(=O)[C@H](CCC(N)=O)NC(=O)[C@H](CO)NC(=O)[C@H](CC(C)C)NC(=O)[C@H](CCCCN)NC(=O)CNC(=O)[C@H](CC(C)C)NC(=O)[C@H](CCSC)NC(=O)[C@@H]1CSSC[C@H](N)C(=O)NCC(=O)N[C@@H](CC(N)=O)C(=O)N[C@@H](CC(C)C)C(=O)N[C@@H](CO)C(=O)N[C@@H]([C@@H](C)O)C(=O)N1)[C@@H](C)O)[C@@H](C)O)C(=O)NCC(=O)N[C@H](C(=O)NCC(=O)N[C@@H](C)C(=O)N1CCC[C@H]1C(N)=O)C(C)C [Peptide No. 1] (H-CGNLSTCMLGKLSQELHKLQTYPQTAIGVGAP-NH2; disulfide 1-7),100.0,74.3,81.1,86.9,83.5,100.0,85.6% and 74.3% and 70.2%,81.6% and 68.4% and 64.4%,76.8% and 68.0% and 60.6%,88.5% and 84.8% and 78.3%,–,–,–,–,–
CC[C@H](C)[C@H](NC(=O)[C@H](C)NC(=O)[C@@H](NC(=O)[C@H](CCC(N)=O)NC(=O)[C@@H]1CCCN1C(=O)[C@H](Cc1ccc(O)cc1)NC(=O)[C@@H](NC(=O)[C@H](CCC(N)=O)NC(=O)[C@H](CC(C)C)NC(=O)[C@H](CCCCN)NC(=O)[C@H](Cc1c[nH]cn1)NC(=O)[C@H](CC(C)C)NC(=O)[C@H](CCC(=O)O)NC(=O)[C@H](CCC(N)=O)NC(=O)[C@H](CO)NC(=O)[C@H](CC(C)C)NC(=O)[C@H](CCCCN)NC(=O)CNC(=O)[C@H](CC(C)C)NC(=O)[C@@H](NC(=O)[C@@H]1CSSC[C@H](N)C(=O)NCC(=O)N[C@@H](CC(N)=O)C(=O)N[C@@H](CC(C)C)C(=O)N[C@@H](CO)C(=O)N[C@@H]([C@@H](C)O)C(=O)N1)C(C)C)[C@@H](C)O)[C@@H](C)O)C(=O)NCC(=O)N[C@H](C(=O)NCC(=O)N[C@@H](C)C(=O)N1CCC[C@H]1C(N)=O)C(C)C [Peptide No. 11] (H-CGNLSTCVLGKLSQELHKLQTYPQTAIGVGAP-NH2; disulfide 1-7),100.0,69.7,82.8,83.9,81.0,100.0,69.1%,62.7%,77.2%,86.2%,–,–,–,–,–
"Peptide No. 21: novel calcitonin-derivative peptide, aminosuberic acid (carba) ring, Met8, SEQ ID NO:21 (XGNLSTAMLGKLSQELHKLQTYPQTAIGVGAP; aminosuberic acid carba ring)",100.0,78.4,71.7,62.6,67.1,100.0,78.4%,71.7%,62.6%,67.1%,–,–,–,–,–
AGNLSTAMLGKLSQELHKGQTYPQTAIGVGAP-NH2 [Peptide No. 17],–,–,–,–,–,–,–,–,–,–,100.0,77.6,71.5,79.7,83.2
CC[C@H](C)[C@H](NC(=O)[C@H](C)NC(=O)[C@@H](NC(=O)[C@H](CCC(N)=O)NC(=O)[C@@H]1CCCN1C(=O)[C@H](Cc1ccc(O)cc1)NC(=O)[C@@H](NC(=O)[C@H](CCC(N)=O)NC(=O)[C@H](CC(C)C)NC(=O)[C@H](CCCCN)NC(=O)[C@H](Cc1c[nH]cn1)NC(=O)[C@H](CC(C)C)NC(=O)[C@H](CCC(=O)O)NC(=O)[C@H](CCC(N)=O)NC(=O)[C@H](CO)NC(=O)[C@H](CC(C)C)NC(=O)[C@H](CCCCN)NC(=O)CNC(=O)[C@H](CC(C)C)NC(=O)[C@H](CC(C)C)NC(=O)[C@@H]1CSSC[C@H](N)C(=O)NCC(=O)N[C@@H](CC(N)=O)C(=O)N[C@@H](CC(C)C)C(=O)N[C@@H](CO)C(=O)N[C@@H]([C@@H](C)O)C(=O)N1)[C@@H](C)O)[C@@H](C)O)C(=O)NCC(=O)N[C@H](C(=O)NCC(=O)N[C@@H](C)C(=O)N1CCC[C@H]1C(N)=O)C(C)C [Peptide No. 13] (H-CGNLSTCLLGKLSQELHKLQTYPQTAIGVGAP-NH2; disulfide 1-7),100.0,68.9,70.5,84.4,86.8,100.0,71.3%,62.7%,58.3%,61.8%,–,–,–,–,–
CC[C@H](C)[C@H](NC(=O)[C@H](C)NC(=O)[C@@H](NC(=O)[C@H](CCC(N)=O)NC(=O)[C@@H]1CCCN1C(=O)[C@H](Cc1ccc(O)cc1)NC(=O)[C@@H](NC(=O)[C@H](CCC(N)=O)NC(=O)[C@H](CC(C)C)NC(=O)[C@H](CCCCN)NC(=O)[C@H](Cc1c[nH]cn1)NC(=O)[C@H](CC(C)C)NC(=O)[C@H](CCC(=O)O)NC(=O)[C@H](CCC(N)=O)NC(=O)[C@H](CO)NC(=O)[C@H](CC(C)C)NC(=O)[C@H](CCCCN)NC(=O)CNC(=O)[C@H](CC(C)C)NC(=O)[C@H](CCSC)NC(=O)[C@@H]1CSSC[C@H](N)C(=O)NCC(=O)N[C@@H](CC(N)=O)C(=O)N[C@@H](CC(C)C)C(=O)N[C@@H](CO)C(=O)N[C@@H]([C@@H](C)O)C(=O)N1)[C@@H](C)O)[C@@H](C)O)C(=O)NCC(=O)N[C@@H](CO)C(=O)NCC(=O)N[C@H](C(=O)N1CCC[C@H]1C(N)=O)[C@@H](C)O [Peptide No. 5] (H-CGNLSTCMLGKLSQELHKLQTYPQTAIGSGTP-NH2; disulfide 1-7),–,–,–,–,–,100.0,76.4%,74.2%,70.7%,76.4%,–,–,–,–,–
CC[C@H](C)[C@H](NC(=O)[C@H](C)NC(=O)[C@@H](NC(=O)[C@H](CCC(N)=O)NC(=O)[C@@H]1CCCN1C(=O)[C@H](Cc1ccc(O)cc1)NC(=O)[C@@H](NC(=O)[C@H](Cc1c[nH]cn1)NC(=O)[C@H](Cc1ccccc1)NC(=O)[C@H](CCCCN)NC(=O)[C@H](CC(N)=O)NC(=O)[C@H](CC(C)C)NC(=O)[C@H](CC(=O)O)NC(=O)[C@H](CCC(N)=O)NC(=O)[C@H](CO)NC(=O)[C@H](CC(C)C)NC(=O)[C@H](CCCCN)NC(=O)CNC(=O)[C@H](CC(C)C)NC(=O)[C@H](CC(C)C)NC(=O)[C@@H]1CCCCNC(=O)C[C@H](N)C(=O)N[C@@H](CC(N)=O)C(=O)N[C@@H](CC(C)C)C(=O)N[C@@H](CO)C(=O)N[C@@H]([C@@H](C)O)C(=O)N1)[C@@H](C)O)[C@@H](C)O)C(=O)NCC(=O)N[C@H](C(=O)NCC(=O)N[C@@H](C)C(=O)N1CCC[C@H]1C(N)=O)C(C)C [Peptide No. 31] (H-DNLSTKLLGKLSQDLNKFHTYPQTAIGVGAP-NH2; lactam 1-6),100.0,79.1,72.7,77.5,74.3,100.0,74.3%,65.6%,57.3%,49.6%,–,–,–,–,–
